US7531655B2, “Large conductance calcium-activated K channel opener” (Mitsubishi Tanabe Pharma Corporation, priority 2002, dated 2009)

How the values were obtained:
[1] = test system: isolated rabbit urinary bladder; assay: Relaxation effect on potassium-induced contraction of isolated rabbit urinary bladder; type: cell-based; conditions: Oryctolagus cuniculus, read-out: IC50 value (50% relaxation concentration)
Protocol: Relaxation Effect on Potassium-Induced Contraction of Isolated Rabbit Urinary Bladder
Urinary bladder was isolated from Male NZW rabbits (body weight: 2.0-3.5 kg) and immersed in ice-cold Krebs-bicarbonate solution (in mM: 118 NaCl, 4.7 KCl, 2.55 CaCl2, 1.18 MgSO4, 1.18 KH2PO4, 24.88 NaHCO3 and 11.1 glucose). The urinary bladder was cut into longitudinal strips (5 mm length 3-4 mm width) after mucosal layer was removed.
Preparations were mounted in organ baths containing 10 ml of Krebs solution maintained at 37° C. and gassed with 95% O2/5% CO2. Accordingly, preparations were stretched with an initial tension of 2.0±1.0 g, and changes in isometric tension were measured by force-displacement transducer. The preparations were pre-contracted by changing organ-bath solution into high-K^+ (30 mM) Krebs solution (in mM: 118 NaCl, […], 2.55 CaCl2, 1.18 MgSO4, 1.18 KH2PO4, 24.88 NaHCO3 and 11.1 glucose).
After stable tension was obtained, compounds were added into organ baths cumulatively (10^−8 M-10^−4 M). The effects of compounds were expressed as a percentage of the maximum relaxation produced by 10^−4 M papaverine as 100%. 50% relaxation concentration (IC50) was calculated and IC50 value range (μM) of compounds of the present invention was shown in the following Table 1 with a rank of A, B or C. These ranges are as mentioned below. • 3 μM≧C>1 μM≧B>0.5 μM≧A

[2] = test system: rhythmic bladder contractions induced by substance P; assay: Inhibitory effect on the rhythmic bladder contractions induced by substance P in anesthetized rats; type: in vivo, rat; conditions: 0.25 mg/kg intravenous; time during which frequency of rhythmic contraction was completely inhibited; urethane-anesthetized Sprague-Dawley female rats
Protocol: Inhibitory Effect on the Rhythmic Bladder Contractions Induced by Substance P in Anesthetized Rats For the experiments, Sprague-Dawley female rats (9 to 12 weeks old) weighing between 200 to 300 g were used. After urethane anesthetization (subcutaneously administered with a dose of 1.2 g/kg), cannulae were placed in both right and left femoral veins. One intravenous catheter was used for administration of compounds, and the other was for the substance P (0.33 μg/kg/min) infusion. We also cannulated into ureter to pass urine. Polyethylene catheters were inserted into carotid artery for continuous monitoring of arterial blood pressure and heart rate. For continuous infusion, transurethral bladder catheter was inserted into the bladder through the urethra and tied in place by a ligature around the urethral orifice. One end of the catheter was attached to a pressure transducer in order to measure intravesical pressure. The other end of the catheter was used for infusion of saline into the bladder. After stabilization of blood pressure and heart rate and after the bladder was emptied, cystometry was performed by filling the bladder slowly with about 0.6 ml of saline. After about 10 minutes, intravenous infusion of substance P (0.33 μg/kg/min) was started for stabilization of the micturition reflex. […]

SMILES	IC50 [1]	100% inhibiting time [2]
O=C([O-])Cc1sc(-c2ccccc2)cc1-c1ccc(Cl)s1.[Na+] [3 (Compound 6)]	500 to 1000 nM	27.1 min
O=C([O-])Cc1oc(-c2ccccc2)cc1-c1ccc(Cl)s1.[Na+] [2 (Compound 6)]	< 500 nM	13.1 min
